Laboratory results taken from patent US20030045680A1, “Peptidic modulators of the androgen receptor” (Praecis Pharmaceuticals Inc., priority 2001, published 2003).
Where two headings read alike, the source gives them in different places. Square brackets hold non-standard residues; d marks the D form. Peptide text beside a SMILES is read from it.

B1: Ac-PAAIPPSLTDYSVPFHHTPVSSMSSDL-NH2 (peptide)
peptide: Ac-PAAIPPSLTDYSVPFHHTPVSSMSSDL-NH2
notes: synthetic peptide of the series based on amino acids 423-548 of ARIP3; also called Cmpd No. 8
B2: Ac-IESSSDE-NH2 (peptide)
peptide: Ac-IESSSDE-NH2
notes: truncation of Cmpd 10; also called Cmpd No. 53
B3: Ac-SVPFHHTPVSSMSSDL-NH2 (peptide)
peptide: Ac-SVPFHHTPVSSMSSDL-NH2
notes: synthetic peptide of the series based on amino acids 423-548 of ARIP3; also called Cmpd No. 12
B4: Ac-FMSETQSSPTK-NH2 (peptide)
peptide: Ac-FMSETQSSPTK-NH2
notes: synthetic peptide of the series based on amino acids 423-548 of ARIP3; also called Cmpd No. 11
B5: Ac-KVESSSVFSKPASVTVASDA-NH2 (peptide)
peptide: Ac-KVESSSVFSKPASVTVASDA-NH2
notes: synthetic peptide of the series based on amino acids 423-548 of ARIP3; also called Cmpd No. 1
B6: Ac-LTIESSSDEEEDPPAKRKAIF-NH2 (peptide)
peptide: Ac-LTIESSSDEEEDPPAKRKAIF-NH2
notes: synthetic peptide of the series based on amino acids 423-548 of ARIP3; also called Cmpd No. 3
B7: Ac-SVPFHHTPVS-NH2 (peptide)
peptide: Ac-SVPFHHTPVS-NH2
notes: synthetic peptide of the series based on amino acids 423-548 of ARIP3; also called Cmpd No. 13
B8: Ac-LTIESSSDE-NH2 (peptide)
peptide: Ac-LTIESSSDE-NH2
notes: truncation of Cmpd 10; also called Cmpd No. 25
B9: Ac-TIESSSD-NH2 (peptide)
peptide: Ac-TIESSSD-NH2
notes: truncation of Cmpd 10; also called Cmpd No. 29
B10: Ac-LTIESSSDEE-NH2 (peptide)
peptide: Ac-LTIESSSDEE-NH2
notes: synthetic peptide of the series based on amino acids 423-548 of ARIP3; also called Cmpd No. 10
B11: Ac-IESFSD-NH2 (peptide)
peptide: Ac-IESFSD-NH2
notes: variant of Cmpd 49 (IESSSD); also called Cmpd No. 34
B12: Ac-IESSSD-NH2 (peptide)
peptide: Ac-IESSSD-NH2
notes: truncation of Cmpd 10; also called Cmpd No. 49
B13: Ac-IESVSD-NH2 (peptide)
peptide: Ac-IESVSD-NH2
notes: variant of Cmpd 49 (IESSSD); also called Cmpd No. 36
B14: Ac-TIESSS-NH2 (peptide)
peptide: Ac-TIESSS-NH2
notes: truncation of Cmpd 10; also called Cmpd No. 47
B15: Ac-FMSETQSSPTKGVLMYQPSSV-NH2 (peptide)
peptide: Ac-FMSETQSSPTKGVLMYQPSSV-NH2
notes: synthetic peptide of the series based on amino acids 423-548 of ARIP3; also called Cmpd No. 5

Columns and labels:
[1] = target: T1, glutathione S-transferase/human androgen receptor DNA binding domain (amino acids 505-635) (GST-DBD) (Homo sapiens, UniProt P10275); test: ARE binding assay (competition binding, electrochemiluminescence)
T1 construct: gift of Dr. Steven Balk (neither purchased nor made by the applicant)
T1 sequence (P10275 505-635): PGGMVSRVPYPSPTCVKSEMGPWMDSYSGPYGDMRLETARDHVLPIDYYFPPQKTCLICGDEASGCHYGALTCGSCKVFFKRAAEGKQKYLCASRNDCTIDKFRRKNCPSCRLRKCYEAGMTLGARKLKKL
Method: Anti-glutathione S-transferase monoclonal antibody was purchased from Upstate Biotechnology, Inc., Lake Placid, N.Y. (catalogue #05-311). Prior to ruthenium labeling, 1 mg/ml antibody was dialyzed against phosphate-buffered saline, pH 7.2, for 24 hours at 4° C. A 0.5 mg of antibody was incubated with 18.8 μg Origen TAG-succinimidyl ester (IGEN, International, Inc. Gaithersburg, Md., catalogue # 110034) for 1 hour at room temperature in the dark. The reaction was stopped with 20 μl 2M glycine for 10 minutes in the dark. Free label was removed with a NAP-5 column. Protein concentration was determined using the micro-BCA assay (catalogue #23235ZZ) from Pierce, Rockford, Ill.
Oligonucleotides were purchased from Integrated DNA Technologies, Inc., Coralville, Iowa. One nmole of each complementary oligonucleotide, Biotin-5′-[…]-3′ (SEQ ID NO:54) and 5′-[…]-3′ (SEQ ID NO:55) was added to 10 μl water and heated to 95° C. for 2 minutes. NaCl was added to a final concentration of 50 mM and the oligonucleotides were allowed to anneal at room temperature. After 1 hour, the annealed oligonucleotides were resuspended in 1 ml water.
The glutathione S-transferase/human androgen receptor DNA binding domain (amino acids 505-635) (GST-DBD) was obtained from Dr. Steven Balk. Synthesis of similar androgen receptor fusion proteins has been previously described (Sun, Z., Pan, J. and Balk, S. P. (1997) Nucleic Acids Research 25:3318-3325). The competition binding assay was performed in phosphate-buffered saline, pH 7.2, containing 100 ng/ml poly dI/dC (Sigma-Aldrich Co., St. Louis, Mo., catalogue #P4929) in a final volume of 0.2 ml by incubating 3 ng oligonucleotide, 200 ng GST-DBD, 30 ng antibody and the desired concentration of test compound. After 1.5 hours in the dark at room temperature, 12.5 μg streptavidin-coated M-280 Dynabeads (IGEN International, Inc. Gaithersburg, Md., catalogue # 402-175-02) were added and incubated while shaking for 30 minutes in the dark. Plates were analyzed on an IGEN M8 Electrochemiluminescence Detection Unit (IGEN, International, Inc. Gaithersburg, Md.).

[2] = target: T2, glutathione S-transferase/human androgen receptor DNA binding domain (amino acids 505-635) (human, UniProt P10275 505-635); test: ECL competition binding assay (IGEN M8): peptide against GST-DBD binding to biotinylated ARE oligonucleotide
T2 construct: Fusion protein obtained from Dr. Steven Balk; also called GST-DBD; not shown: glutathione S-transferase fusion partner
T2 sequence (looked up): T1 sequence (P10275 505-635)

[3] = target: T3, glutathione S-transferase/human androgen receptor DNA binding domain (amino acids 505-635) (human), P10275; test: as above
T3 chain: T1 sequence (P10275 505-635)

[4] = target: T3, glutathione S-transferase/human …
[5] = target: glutathione S-transferase/human androgen receptor DNA binding domain (amino acids 505-635) (human) (UniProt P10275); test: ECL competition binding assay (IGEN M8): peptide against GST-DBD binding to biotinylated ARE oligonucleotide
[6] = inhibition of binding of androgen receptor DNA binding domain to biotinylated ARE oligonucleotide, average where more than one assay, replications in parentheses, read-out: IC50

| Molecule | IC50 [1, 6] [µM] | IC50 [2] [µM] | also measured |
| --- | --- | --- | --- |
| Ac-TPVSSMSSDL-NH2 [compound 14, Ac-TPVSSMSSDL-NH2] | 7.4 | – | – |
| Ac-ESSSDE-NH2 [compound 50, Ac-ESSSDE-NH2] | 11 | – | – |
| Ac-KVESSSVFS-NH2 [compound 9, Ac-KVESSSVFS-NH2] | > 50 | – | – |
| Ac-KPASVTVASDASKKIDVIDL-NH2 [compound 2] | > 50 | – | – |
| Ac-IASASD-NH2 [compound 33, Ac-IASASD-NH2] | 20 | – | – |
| Ac-LAIESSSDEE-NH2 [compound 17, Ac-LAIESSSDEE-NH2] | 25 | – | – |
| Ac-IESLSD-NH2 [compound 35, Ac-IESLSD-NH2] | 20 | – | – |
| Ac-DSSSEI-NH2 [compound 37, Ac-DSSSEI-NH2] | 20 | – | – |
| Ac-LTIESSSDEE-OH [compound 30, Ac-LTIESSSDEE-OH] | 7.4 | – | – |
| Ac-IESASD-NH2 [compound 32, Ac-IESASD-NH2] | 20 | – | – |
| CC[C@@H](C)[C@@H](NC(=O)[C@@H](CCC(=O)O)NC(=O)[C@@H](CO)NC(=O)[C@@H](CO)NC(=O)[C@@H](CO)NC(=O)[C@@H](CC(=O)O)NC(C)=O)C(N)=O [compound 39, Ac-dsssei-NH2] (Ac-[dD][dS][dS][dS][dE][dI]-NH2) | 20 | – | – |
| Ac-IESSSDEE-NH2 [compound 48, Ac-IESSSDEE-NH2] | > 50 | – | – |
| Ac-TIESSSDEE-NH2 [compound 27, Ac-TIESSSDEE-NH2] | 22 | – | – |
| H-LTIESSSDEE-NH2 [compound 15, H-LTIESSSDEE-NH2] | 25 | – | – |
| Ac-LTAESSSDEE-NH2 [compound 18, Ac-LTAESSSDEE-NH2] | 25 | – | – |
| Ac-VRVPSVTSVDPAAIPPSLTDY-NH2 [compound 7] | > 50 | – | – |
| Ac-LTIESSSAEE-NH2 [compound 22, Ac-LTIESSSAEE-NH2] | 20 | – | – |
| Ac-LTIESSSDEEEDPPAKRKAIF-NH2 [compound 3] | 22 | – | – |
| Ac-LTIESS-NH2 [compound 26, Ac-LTIESS-NH2] | > 50 | – | – |
| Ac-TIESSSDE-NH2 [compound 28, Ac-TIESSSDE-NH2] | 22 | – | – |
| Ac-EDPPAKRKAIFMSETQSSPTK-NH2 [compound 4] | > 50 | – | – |
| Ac-ATIESSSDEE-NH2 [compound 16, Ac-ATIESSSDEE-NH2] | 25 | – | – |
| Ac-KGVLMYQSSVRVPSVTSVDP-NH2 [compound 6] | > 50 | – | – |
| CC[C@@H](C)[C@@H](NC(C)=O)C(=O)N[C@H](CCC(=O)O)C(=O)N[C@H](CO)C(=O)N[C@H](CO)C(=O)N[C@H](CO)C(=O)N[C@H](CC(=O)O)C(N)=O [compound 38, Ac-iesssd-NH2] (Ac-[dI][dE][dS][dS][dS][dD]-NH2) | 20 | – | – |
| Ac-SSSDEE-NH2 [compound 51, Ac-SSSDEE-NH2] | 22 | – | – |

| Molecule | IC50 [1, 6] [µM] | IC50 [2] [µM] | also measured |
| --- | --- | --- | --- |
| H-YGRKKRRQRRRGGGGLTIESSSDEE-NH2 [compound 54] | – | – | IC50 [1]: 6.5 µM |
| B1 | – | 28 | – |
| B2 | – | 19 | – |
| B3 | – | 8.2 | – |
| B4 | – | 5.6 | – |
| Ac-IESLSD-NH2 [Ac-IESLSD-NH2] | – | – | IC50 [3]: 20 µM |
| B5 | – | 34 | – |
| H-YGRKKRRQRRRGGGGLTIESSSDEE-NH2 [H-…-NH2] | – | – | IC50 [4]: 6.5 µM |
| B6 | – | 22 | – |
| B7 | – | 27 | – |
| B8 | – | 30 | – |
| Ac-ESSSDE-NH2 [Ac-ESSSDE-NH2] | – | – | IC50 [3]: 11 µM |
| B9 | – | 40 | – |
| B10 | – | 4.7 | – |
| Ac-LTIASSSDEE-NH2 (also called Cmpd No. 19) [Ac-LTIASSSDEE-NH2] | – | 6.6 | – |
| Ac-LTIESSSDAE-NH2 (also called Cmpd No. 23) [Ac-LTIESSSDAE-NH2] | – | 14 | – |
| Ac-LTIEASSDEE-NH2 (also called Cmpd No. 20) [Ac-LTIEASSDEE-NH2] | – | 18 | – |
| Ac-LTIESSSDEA-NH2 (also called Cmpd No. 24) [Ac-LTIESSSDEA-NH2] | – | 2.6 | – |
| Ac-LTIESASDEE-NH2 (also called Cmpd No. 21) [Ac-LTIESASDEE-NH2] | – | 1.5 | – |
| Ac-DSSSEI-NH2 (also called Cmpd No. 37) [Ac-DSSSEI-NH2] | – | 20 | IC50 [5]: 20 µM |
| B11 | – | 63 | – |
| B12 | – | 4.3 | – |
| B13 | – | 5.3 | – |
| B14 | – | 12 | – |
| B15 | – | 15 | – |
